Experimental data published in US20260166021A1, “POLYMORPHIC FORMS OF A SOLUBLE EPOXIDE HYDROLASE INHIBITOR AND FORMULATIONS THEREOF” (EicOsis, LLC, priority 2022, published 2026).

Experiments:
[1] = Supersaturation monitoring in PEG 300; assay type: physicochemical
[2] = Equilibrium-solubility screening in solvents and excipients; assay type: physicochemical; conditions: organic solvent or mixture, thermodynamic from solid; PEG300, PEG400, propylene glycol, vitamin E TPGS, Gelucire 44/14, castor oil hydrogenated, Capmul MCM NF, Capmul MCM EP, Kolliphor HS-15, Kolliphor EL, Labrasol, Transcutol HP; approx. 24 hours
Procedure: For these analyses, Form D or Form C was mixed with 0.5 or 1.0 mL of solvents and equilibrated for approximately 24 hours. The mixture was filtered through 0.45 μm centrifuge filters.
As expected, the compound was not easily ionized at physiologically relevant pH. […] In addition, these excipients included surfactants, co-solvents, and lipids which are amenable for use in self-emulsifying drug delivery systems (SEDDS). The XRD pattern of the starting material was maintained for each sample after equilibrium.

CC[C@H](C)C(=O)N1CCC(NC(=O)Nc2ccc(OC(F)(F)F)c(F)c2)CC1 [Formula (I), (S)-1-(3-fluoro-4-(trifluoromethoxy)phenyl)-3-(1-(2-methylbutanoyl)piperidin-4-yl)urea]
time without visual precipitation in PEG300 ([1]; 100 mg/mL in PEG300, room temperature): 9 days | precipitation from PEG300 ([1]; 200 mg/mL in PEG300): readily precipitated overnight | solubility thermodynamic [2]: > 20 mg/mL
